Read-outs that look alike come from different tables or passages of the source. Where no end group is shown, it is not given here.
What was measured:
Assay type in all cases: cell-based
PfCRT^Ecu1110 [1] = biological target: T1, PfCRT^Ecu1110 (Plasmodium falciparum, UniProt Q9N623, A220S/I356L/K76T/N326D); assay: cell-based; settings: […]; for activity at 45000 µM: read-out: [3H]CQ transport, PfCRTEcu1110 (% PfCRTDd2 control), 45 mM VF-6 injected, 0 mM Na+ injection buffer; for activity at 2000 µM: read-out: [3H]CQ transport, PfCRTEcu1110, trans-stimulation, solute 2 mM
T1 sequence (Q9N623 whole entry A220S/I356L/K76T/N326D): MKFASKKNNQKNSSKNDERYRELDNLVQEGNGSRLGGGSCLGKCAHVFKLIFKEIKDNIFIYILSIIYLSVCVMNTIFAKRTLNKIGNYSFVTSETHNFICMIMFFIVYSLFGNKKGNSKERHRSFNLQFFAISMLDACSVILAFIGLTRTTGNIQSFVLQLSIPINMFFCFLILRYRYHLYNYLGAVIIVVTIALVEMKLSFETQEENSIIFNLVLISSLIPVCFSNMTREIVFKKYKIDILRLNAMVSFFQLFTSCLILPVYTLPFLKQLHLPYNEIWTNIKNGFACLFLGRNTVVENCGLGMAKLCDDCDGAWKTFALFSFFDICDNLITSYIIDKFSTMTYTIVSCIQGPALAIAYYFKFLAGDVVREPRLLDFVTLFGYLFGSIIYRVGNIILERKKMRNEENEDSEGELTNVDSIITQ
Method in brief: (§1)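 Transport measured in Xenopus oocytes expressing the transporters, 1.5 h at 27.5 °C in ND96 pH 5.5 unless noted. For trans-stimulation, VF-6 injected in 25 nL ND96 at pH 5.0–7.0 or Na^+-free (choline) buffer; intracellular levels based on ~400 nL oocyte volume. Ten oocytes per treatment, ≥4 experiments.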

PfCRT^3D7 = PfCRT^3D7 (Plasmodium falciparum, UniProt Q8IBZ9); assay: cell-based; settings: for [3H]CQ transport, PfCRT3D7 (% PfCRTDd2 control): 45 mM VF-6 injected, 96 mM Na+ injection buffer; for activity at 2000 µM: read-out: [3H]CQ transport, PfCRT3D7, trans-stimulation, solute 2 mM; for [3H]CQ transport, PfCRT3D7 (% PfCRT3D7 control): solute 45 mM injected (estimated intracellular)
Sequence of PfCRT^3D7 (Q8IBZ9 59-398): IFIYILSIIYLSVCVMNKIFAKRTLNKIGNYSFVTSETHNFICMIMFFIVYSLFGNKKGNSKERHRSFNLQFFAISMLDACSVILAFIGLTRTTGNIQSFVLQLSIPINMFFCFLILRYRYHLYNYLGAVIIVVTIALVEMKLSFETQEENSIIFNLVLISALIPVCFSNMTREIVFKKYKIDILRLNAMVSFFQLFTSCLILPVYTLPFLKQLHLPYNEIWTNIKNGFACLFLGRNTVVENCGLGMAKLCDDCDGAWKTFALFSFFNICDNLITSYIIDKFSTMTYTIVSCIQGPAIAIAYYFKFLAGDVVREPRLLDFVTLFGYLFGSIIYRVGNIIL
Method in brief: as §1

PfNT1 = biological target: T2, PfNT1 (Plasmodium falciparum, UniProt Q8IDM6); assay: cell-based; settings: for activity at 2000 µM: read-out: [3H]CQ transport, PfNT1, trans-stimulation, solute 2 mM
T2 construct: expressed in transfected cells; host or cells: Xenopus laevis oocytes (stage V-VI), cRNA-injected
T2 sequence (Q8IDM6 whole entry): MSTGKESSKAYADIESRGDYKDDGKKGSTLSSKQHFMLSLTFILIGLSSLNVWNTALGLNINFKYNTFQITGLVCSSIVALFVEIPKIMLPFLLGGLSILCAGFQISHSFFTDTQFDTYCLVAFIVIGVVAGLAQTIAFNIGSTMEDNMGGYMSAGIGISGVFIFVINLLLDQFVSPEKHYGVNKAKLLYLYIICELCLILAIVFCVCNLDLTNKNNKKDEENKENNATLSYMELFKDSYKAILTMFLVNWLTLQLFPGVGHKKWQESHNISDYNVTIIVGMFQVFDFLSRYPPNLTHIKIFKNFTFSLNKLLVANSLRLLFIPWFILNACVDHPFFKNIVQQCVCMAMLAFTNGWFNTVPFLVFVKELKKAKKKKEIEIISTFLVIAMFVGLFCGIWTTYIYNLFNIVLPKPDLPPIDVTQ
Method in brief: as §1

PfCRT^Dd2 [2] = biological target: T3, PfCRT^Dd2 (Plasmodium falciparum, UniProt Q9N623, A220S/I356T/K76T/M74I/N326S/N75E/Q271E/R371I); assay: cell-based; settings: […]; for activity at 2000 µM: pH 5.5, read-out: [3H]CQ transport, PfCRTDd2, trans-stimulation, solute 2 mM
T3 sequence (Q9N623 whole entry A220S/I356T/K76T/M74I/N326S/N75E/Q271E/R371I): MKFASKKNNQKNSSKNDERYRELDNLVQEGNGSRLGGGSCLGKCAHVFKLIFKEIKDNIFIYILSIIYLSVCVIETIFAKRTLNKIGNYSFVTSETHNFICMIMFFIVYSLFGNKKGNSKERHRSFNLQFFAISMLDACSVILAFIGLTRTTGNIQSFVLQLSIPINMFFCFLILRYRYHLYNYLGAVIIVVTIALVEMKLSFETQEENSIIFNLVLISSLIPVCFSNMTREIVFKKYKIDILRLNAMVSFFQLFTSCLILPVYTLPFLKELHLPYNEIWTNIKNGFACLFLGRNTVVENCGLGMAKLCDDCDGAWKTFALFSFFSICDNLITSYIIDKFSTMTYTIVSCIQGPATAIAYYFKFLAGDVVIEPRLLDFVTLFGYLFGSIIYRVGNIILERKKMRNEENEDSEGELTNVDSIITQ
Method in brief: as §1

PfCRT^Ecu1110 [3] = biological target: T1, PfCRT^Ecu1110; assay: [3H]CQ uptake into Xenopus oocytes, cis-inhibition by unlabelled solute
Method in brief: (§2)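 Washed oocytes (ten per treatment) were exposed to label in pH 5.5 ND96 for 1.5 h at 27.5 °C. Buffer was then removed, cells rinsed in ice-cold ND96, lysed in SDS and counted.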

PfCRT^Dd2 [4] = biological target: T3, PfCRT^Dd2; assay: as above; settings: read-out: PfCRT-mediated [3H]CQ transport, cis-inhibition (% PfCRTDd2 control)
Method in brief: as §2

[5] = read-out: PfCRT-mediated [3H]CQ transport, cis-inhibition (% PfCRTEcu1110 control)
[6] = read-out: [3H]CQ transport (% PfCRTEcu1110 control), cis-inhibition, PfCRTEcu1110, SEM

VDPVNF [VF-6]
activity at 5000 µM (PfCRT^Ecu1110 [1]; pH 5.5, read-out: PfCRT-mediated [3H]CQ transport, trans-stimulation (% PfCRTEcu1110 control), [test solute]i = 5 mM (intracellular), PfCRTEcu1110 oocytes, normalised to oocyte type control): 126 ± 2.4%
activity at 45000 µM (PfCRT^Ecu1110 [1]; Experiment 1): 47.7%
activity at 45000 µM (PfCRT^Ecu1110 [1]; Experiment 2): 47.6%
activity at 45000 µM (PfCRT^Ecu1110 [1]; Experiment 3): 50.8%
activity at 45000 µM (PfCRT^Ecu1110 [1]; Experiment 4): 49.2%
activity at 45000 µM (PfCRT^Ecu1110 [1]; Experiment 5): 51.1%
activity at 2000 µM (PfCRT^Ecu1110 [1]; Experiment 1): 44.2%
activity at 2000 µM (PfCRT^Ecu1110 [1]; Experiment 2): 47.3%
activity at 2000 µM (PfCRT^Ecu1110 [1]; Experiment 3): 38.4%
activity at 2000 µM (PfCRT^Ecu1110 [1]; Experiment 4): 45.6%
[3H]CQ transport, PfCRT3D7 (% PfCRTDd2 control) (PfCRT^3D7; Experiment 1): 22.53 % PfCRTDd2 control
[3H]CQ transport, PfCRT3D7 (% PfCRTDd2 control) (PfCRT^3D7; Experiment 2): 23.78 % PfCRTDd2 control
[3H]CQ transport, PfCRT3D7 (% PfCRTDd2 control) (PfCRT^3D7; Experiment 3): 24.68 % PfCRTDd2 control
[3H]CQ transport, PfCRT3D7 (% PfCRTDd2 control) (PfCRT^3D7; Experiment 4): 25.32 % PfCRTDd2 control
[3H]CQ transport, PfCRT3D7 (% PfCRTDd2 control) (PfCRT^3D7; Experiment 5): 26.32 % PfCRTDd2 control
activity at 5000 µM (PfCRT^3D7; […], read-out: PfCRT-mediated [3H]CQ transport, trans-stimulation (% PfCRT3D7 control), [test solute]i = 5 mM (intracellular), PfCRT3D7 oocytes, normalised to oocyte type control): 147 ± 5.2%
activity at 45000 µM (PfCRT^3D7; […], read-out: PfCRT-mediated [3H]CQ transport, trans-stimulation (% PfCRT3D7 control), [test solute]i = 45 mM (intracellular; 30 mM for some solutes due to solubility), PfCRT3D7 oocytes, normalised to oocyte type control): 195 ± 4.6%
activity at 45000 µM (PfCRT^3D7; […], read-out: [3H]CQ transport, PfCRT3D7 (% PfCRTDd2 control), 45 mM VF-6 injected, 0 mM Na+ injection buffer, Experiment 1): 25.3%
activity at 45000 µM (PfCRT^3D7; […], read-out: [3H]CQ transport, PfCRT3D7 (% PfCRTDd2 control), 45 mM VF-6 injected, 0 mM Na+ injection buffer, Experiment 2): 26.4%
activity at 45000 µM (PfCRT^3D7; […], read-out: [3H]CQ transport, PfCRT3D7 (% PfCRTDd2 control), 45 mM VF-6 injected, 0 mM Na+ injection buffer, Experiment 3): 25.3%
activity at 45000 µM (PfCRT^3D7; […], read-out: [3H]CQ transport, PfCRT3D7 (% PfCRTDd2 control), 45 mM VF-6 injected, 0 mM Na+ injection buffer, Experiment 4): 26.8%
activity at 45000 µM (PfCRT^3D7; […], read-out: [3H]CQ transport, PfCRT3D7 (% PfCRTDd2 control), 45 mM VF-6 injected, 0 mM Na+ injection buffer, Experiment 5): 27.3%
activity at 2000 µM (PfCRT^3D7; […], Experiment 1): 22.9%
activity at 2000 µM (PfCRT^3D7; […], Experiment 2): 19.1%
activity at 2000 µM (PfCRT^3D7; […], Experiment 3): 21.1%
activity at 2000 µM (PfCRT^3D7; […], Experiment 4): 21.8%
[3H]CQ transport, PfCRT3D7 (% PfCRT3D7 control) (PfCRT^3D7; trans-stimulation, Experiment 1): 187.43 % PfCRT3D7 control
[3H]CQ transport, PfCRT3D7 (% PfCRT3D7 control) (PfCRT^3D7; trans-stimulation, Experiment 2): 206.32 % PfCRT3D7 control
[3H]CQ transport, PfCRT3D7 (% PfCRT3D7 control) (PfCRT^3D7; trans-stimulation, Experiment 3): 201.32 % PfCRT3D7 control
[3H]CQ transport, PfCRT3D7 (% PfCRT3D7 control) (PfCRT^3D7; trans-stimulation, Experiment 4): 199.25 % PfCRT3D7 control
[3H]CQ transport (% PfCRT3D7 control), trans-stimulation, PfCRT3D7 (PfCRT^3D7; trans-stimulation, [test solute]i = 5 mM (injected), PfCRT-mediated component (background subtracted), sheet title says normalised to PfCRTDd2 control, mean ± SEM, SEM): 1.7 ± 0.02 % PfCRT3D7 control
[3H]CQ transport, PfNT1 (% PfCRTDd2 control) (PfNT1; 45 mM VF-6 injected, 0 mM Na+ injection buffer, Experiment 1): 3.36 % PfCRTDd2 control
[3H]CQ transport, PfNT1 (% PfCRTDd2 control) (PfNT1; 45 mM VF-6 injected, 0 mM Na+ injection buffer, Experiment 2): 3.47 % PfCRTDd2 control
[3H]CQ transport, PfNT1 (% PfCRTDd2 control) (PfNT1; 45 mM VF-6 injected, 0 mM Na+ injection buffer, Experiment 3): 3.88 % PfCRTDd2 control
[3H]CQ transport, PfNT1 (% PfCRTDd2 control) (PfNT1; 45 mM VF-6 injected, 0 mM Na+ injection buffer, Experiment 4): 3.57 % PfCRTDd2 control
[3H]CQ transport, PfNT1 (% PfCRTDd2 control) (PfNT1; 45 mM VF-6 injected, 0 mM Na+ injection buffer, Experiment 5): 3.69 % PfCRTDd2 control
[3H]CQ transport, PfNT1 (% PfCRTDd2 control) (PfNT1; 45 mM VF-6 injected, 96 mM Na+ injection buffer, Experiment 1): 3.72 % PfCRTDd2 control
[3H]CQ transport, PfNT1 (% PfCRTDd2 control) (PfNT1; 45 mM VF-6 injected, 96 mM Na+ injection buffer, Experiment 2): 3.21 % PfCRTDd2 control
[3H]CQ transport, PfNT1 (% PfCRTDd2 control) (PfNT1; 45 mM VF-6 injected, 96 mM Na+ injection buffer, Experiment 3): 3.67 % PfCRTDd2 control
[3H]CQ transport, PfNT1 (% PfCRTDd2 control) (PfNT1; 45 mM VF-6 injected, 96 mM Na+ injection buffer, Experiment 4): 3.45 % PfCRTDd2 control
[3H]CQ transport, PfNT1 (% PfCRTDd2 control) (PfNT1; 45 mM VF-6 injected, 96 mM Na+ injection buffer, Experiment 5): 3.27 % PfCRTDd2 control
activity at 2000 µM (PfNT1; Experiment 1): 2.65%
activity at 2000 µM (PfNT1; Experiment 2): 2.51%
activity at 2000 µM (PfNT1; Experiment 3): 2.61%
activity at 2000 µM (PfNT1; Experiment 4): 2.73%
[3H]CQ transport, PfNT1 (% PfCRTDd2 control) (PfNT1; trans-stimulation, solute 45 mM injected (estimated intracellular), Experiment 1): 2.65 % PfCRTDd2 control
[3H]CQ transport, PfNT1 (% PfCRTDd2 control) (PfNT1; trans-stimulation, solute 45 mM injected (estimated intracellular), Experiment 2): 2.51 % PfCRTDd2 control
[3H]CQ transport, PfNT1 (% PfCRTDd2 control) (PfNT1; trans-stimulation, solute 45 mM injected (estimated intracellular), Experiment 3): 2.61 % PfCRTDd2 control
[3H]CQ transport, PfNT1 (% PfCRTDd2 control) (PfNT1; trans-stimulation, solute 45 mM injected (estimated intracellular), Experiment 4): 2.73 % PfCRTDd2 control
activity at 5000 µM (PfCRT^Dd2 [2]; pH 5.5, read-out: PfCRT-mediated [3H]CQ transport, trans-stimulation (% PfCRTDd2 control), [test solute]i = 5 mM (intracellular), PfCRTDd2 oocytes, normalised to oocyte type control): 103 ± 3.1%
activity at 5000 µM (PfCRT^Dd2 [2]; pH 5.5, read-out: [3H]CQ transport (% PfCRTDd2 control), trans-stimulation, PfCRTDd2, trans-stimulation, [test solute]i = 5 mM (injected), PfCRT-mediated component (background subtracted), mean ± SEM, SEM): 103 ± 3.1%
activity at 45000 µM (PfCRT^Dd2 [2]; pH 5.5, read-out: [3H]CQ transport (% PfCRTDd2 control), trans-stimulation, PfCRTDd2, trans-stimulation, [test solute]i = 45 mM (30 mM for some solutes due to solubility), PfCRT-mediated component (background subtracted), mean ± SEM, SEM): 112 ± 2.1%
activity at 2000 µM (PfCRT^Dd2 [2]; Experiment 1): 120%
activity at 2000 µM (PfCRT^Dd2 [2]; Experiment 2): 119%
activity at 2000 µM (PfCRT^Dd2 [2]; Experiment 3): 120%
activity at 2000 µM (PfCRT^Dd2 [2]; Experiment 4): 112%
inhibition at 500 µM (PfCRT^Ecu1110 [3]; [5]): 50 ± 2.4%
inhibition at 1000 µM (PfCRT^Ecu1110 [3]; [5]): 39 ± 4.1%
inhibition at 2000 µM (PfCRT^Ecu1110 [3]; [5]): 26 ± 2.1%
inhibition at 500 µM (PfCRT^Ecu1110 [3]; [6]): 16 ± 0.3%
inhibition at 1000 µM (PfCRT^Ecu1110 [3]; [6]): 12 ± 0.2%
inhibition at 2000 µM (PfCRT^Ecu1110 [3]; [6]): 8 ± 0.04%
inhibition at 500 µM (PfCRT^Dd2 [4]): 30 ± 1.1%
inhibition at 1000 µM (PfCRT^Dd2 [4]): 21 ± 0.8%
inhibition at 2000 µM (PfCRT^Dd2 [4]): 8.1 ± 0.2%
